Results reported in article PMC10928712, “High Target Homology Does Not Guarantee Inhibition: Aminothiazoles Emerge as Inhibitors of Plasmodium falciparum” (ACS Infectious Diseases, 2024).
Values joined by “and” are separate entries in the source; they are usually repeats but may differ in a detail not shown here. Equal entries are not always repeated.

Key:
[1] = system: P. falciparum Dd2; experiment: Method III growth inhibition assay (HRP2-ELISA, 3 days), Dd2; assay type: cell-based, Plasmodium falciparum
[2] = system: P. falciparum 3D7; experiment: Method III growth inhibition assay (HRP2-ELISA, 3 days), 3D7; assay type: cell-based, Plasmodium falciparum
[3] = system: Hep G2 cells; experiment: Hep G2 viability assay (counter screen); assay type: cell-based, human; conditions: Homo sapiens, HepG2; at 10 μM
Method: HepG2 cells (2 × 10^5 cells per well) were seeded in 24-well, flat-bottomed plates. Culturing of cells, incubations, and OD measurements were performed as described previously with small modifications.[58] 24 h after seeding the cells, the incubation was started by the addition of compounds in a final DMSO concentration of 1%. The metabolic activity of the living cell mass was determined after 48 h. At least three independent measurements were performed for each compound. The IC50 values were determined during logarithmic growth using GraphPad Prism software. All experiments were performed at least in triplicate, and data reported represent the mean ± SD.

[4] = system: P. falciparum NF54; experiment: Method II growth-inhibition assay (PicoGreen, 3 days), NF54; assay type: cell-based; conditions: Plasmodium falciparum; chloroquine-sensitive NF54, method II
Text: (§1) Fidock (Columbia University).

[5] = system: P. falciparum 3D7; experiment: Method II growth-inhibition assay (PicoGreen, 3 days), 3D7; assay type: cell-based; conditions: Plasmodium falciparum; 3D7, method II; read-out: IC50 3D7-II
Text: as §1

[6] = Plasmodium falciparum, DD2, chloroquine-resistant Dd2, method III
[7] = 3D7, method III (HRP2 assay), drc package of R, read-out: IC50 P. falciparum 3D7 (method III)
[8] = Plasmodium falciparum, 3D7, 3D7, method III (HRP2 assay), drc package of R, read-out: IC50 P. falciparum 3D7 (method III)
[9] = Plasmodium falciparum, 3D7, table of compounds as SMILES with biological activity, strain not given, values match 3D7 method III, read-out: IC50
[10] = chloroquine-resistant Dd2, method III
[11] = table of compounds as SMILES with biological activity, strain not given, values match 3D7 method III, read-out: IC50

| Compound | IC50 [1, 6] [µM] | IC50 [2, 7] | IC50 [2, 8] [µM] | IC50 [2, 9] [µM] | further results |
| --- | --- | --- | --- | --- | --- |
| OCc1cn(Cc2ccc(Cl)c(Cl)c2)c2c(Cl)cccc12 [compound 23, (7-Chloro-1-(3,4-dichlorobenzyl)-1H-indol-3-yl)methanol] | 36 ± 16 | 14 ± 1 µM | 13 | – | – |
| Cc1ccc(Nc2nc(-c3ccc(O)c(O)c3)cs2)cc1C [compound 42, 4-(2-((3,4-Dimethylphenyl)amino)thiazol-4-yl)benzene-1,2-diol] | 7 ± 1 | – | 4 ± 1 | 4.4 | – |
| OCc1cn(Cc2ccccc2)c2ccc(Br)cc12 [compound 30, (1-Benzyl-5-bromo-1H-indol-3-yl)methanol] | 5 ± 3 | 6 ± 1 µM | < 10 | 6.1 | – |
| OCc1cn(-c2ccc(Cl)c(Cl)c2)c2ccccc12 [compound 15, (1-(3,4-Dichlorophenyl)-1H-indol-3-yl)methanol] | 54 ± 6 | – | > 56 | 55.5 | – |
| N-(3-Chloro-2-methylphenyl)-5-(pyridin-2-yl)thiazol-2-amine [compound 44] | – | 3 µM | – | – | IC50 [1, 10]: 2 ± 1 µM; IC50 [2, 11]: 2.8 µM |
| Cc1nc(N)sc1-c1csc(Nc2cccc(C(F)(F)F)c2)n1 [compound 45] | 5 | – | 3 | 2.5 | – |
| N#Cc1ccc2c(CO)cn(Cc3ccc(Cl)c(Cl)c3)c2c1 [compound 17] | 44 ± 9 | – | 44 ± 19 | 43.8 | – |
| Cc1cn(Cc2ccc(Cl)c(Cl)c2)c2ccccc12 [compound 26, 1-(3,4-Dichlorobenzyl)-3-methyl-1H-indole] | 11 ± 5 | 10.2 µM | ~10 | – | – |
| 2′,4′-Dimethyl-N-(4-(trifluoromethyl)phenyl)-[5,5′-bithiazol]-2-amine [compound 41] | – | ~10 µM and 10 µM | – | – | IC50 [1, 10]: 5 µM; IC50 [2, 11]: 9.5 µM |
| COc1ccc2c(c1)c(CO)cn2Cc1ccc(Cl)c(Cl)c1 [compound 21, (1-(3,4-Dichlorobenzyl)-5-methoxy-1H-indol-3-yl)methanol] | 54 ± 6 | – | 19 ± 1 | 18.5 | – |
| OCc1cn(Cc2ccc(Cl)c(Cl)c2)c2ccc(F)cc12 [compound 32] | 8 ± 2 | 5 ± 1 µM | < 10 | 5.3 | – |
| OCc1cn(Cc2cccc(Cl)c2)c2cccc(F)c12 [compound 24, (1-(3-Chlorobenzyl)-4-fluoro-1H-indol-3-yl)methanol] | 10 ± 1 | – | 12 ± 1 | – | – |
| Cc1nc(N)sc1-c1csc(Nc2ccccc2C(F)(F)F)n1 [compound 35] | 48 ± 12 | – | 43 ± 2 | – | – |
| COc1ccc(CNCc2cn(Cc3ccc(Cl)c(Cl)c3)c3ccccc23)c(OC)c1 [compound 34, 1-(1-(3,4-Dichlorobenzyl)-1H-indol-3-yl)-N-(2,4-dimethoxybenzyl)methan-amine] | 21 ± 6 | – | – | – | inhibition at 10 µM [3]: 90% |
| COc1ccc(C(Cc2ccc(Cl)cc2)=NO)c(O)c1 [compound 9] | 24 ± 6 | – | 47 ± 15 | 46.8 | – |
| Clc1ccc(Cn2ccc3ccccc32)cc1Cl [compound 28, 1-(3,4-Dichlorobenzyl)-1H-indole] | 18 ± 7 | 8.1 µM | ~8 | – | – |
| 4-(2-((4-(Trifluoromethyl)phenyl)amino)thiazol-5-yl)benzene-1,3-diol [compound 38] | – | 22 ± 6 µM | – | – | IC50 [2, 11]: 22.1 µM |
| Cc1ccc(C)c(Nc2nc(-c3ccccn3)cs2)c1 [compound 43, N-(2,5-Dimethylphenyl)-4-(pyridin-2-yl)thiazol-2-amine] | 5 ± 1 | – | 4 ± 2 | 3.7 | – |
| NN=C(Cc1ccc(Cl)cc1)c1ccc(O)cc1O [compound 12] | 14 ± 5 | – | 16 | – | IC50 [4]: 45 ± 7 µM; IC50 [5]: 46 ± 3 µM |

| Compound | IC50 [1, 6] [µM] | IC50 [2, 7] | IC50 [2, 8] [µM] | IC50 [2, 9] [µM] | further results |
| --- | --- | --- | --- | --- | --- |
| OCc1nn(Cc2ccc(Cl)c(Cl)c2)c2ccccc12 [compound 18, (1-(3,4-Dichlorobenzyl)-1H-indazol-3-yl)methanol] | 70 ± 21 | – | 34 | 33.9 | – |
| COc1cccc2c(CO)cn(Cc3ccc(Cl)c(Cl)c3)c12 [compound 16] | 48 ± 13 | – | > 56 | 55.5 | – |
| COc1ccc(C(Cc2ccc(Cl)cc2)=NO)cn1 [7Z, 2-(4-Chlorophenyl)-1-(6-methoxypyridin-3-yl)ethan-1-one oxime] | – | > 111 µM | – | – | IC50 [1, 10]: > 111 µM |
| ON=C(Cc1ccc(Cl)cc1)c1ccc(O)nc1 [8E, 2-(4-Chlorophenyl)-1-(6-hydroxypyridin-3-yl)ethan-1-one oxime] | – | > 111 µM | – | – | IC50 [1, 10]: > 111 µM |
| 5-(Pyridin-4-yl)-N-(4-(trifluoromethyl)phenyl)thiazol-2-amine [compound 36] | – | 34 ± 2 µM | – | – | IC50 [2, 11]: 34.2 µM |
| COc1ccc(C(Cc2ccc(Cl)cc2)=NO)cn1 [7E, 2-(4-Chlorophenyl)-1-(6-methoxypyridin-3-yl)ethan-1-one oxime] | – | 44 ± 10 µM | – | 43.6 | IC50 [1, 10]: > 55 µM |
| OCc1cn(Cc2ccccc2)c2cccc(F)c12 [compound 25, (1-Benzyl-4-fluoro-1H-indol-3-yl)methanol] | 9 | – | 12 ± 2 | 11.9 | – |
| OCc1cn(Cc2ccc(Cl)c(Cl)c2)c2ncccc12 [compound 14, (1-(3,4-Dichlorobenzyl)-1H-pyrrolo[2,3-b]pyridin-3-yl)methanol] | 91 ± 18 | – | > 111 | – | – |
| COc1cccc2c1c(CO)cn2Cc1cccc(Cl)c1 [compound 22, (1-(3-Chlorobenzyl)-4-methoxy-1H-indol-3-yl)methanol] | 14 ± 4 | – | 16 ± 3 | 13.8 | IC50 [2, 11]: 15.6 µM |
| COc1cccc2c1c(CO)cn2Cc1ccc(Cl)c(Cl)c1 [compound 31, (1-(3,4-Dichlorobenzyl)-4-methoxy-1H-indol-3-yl)methanol] | 5 ± 2 | – | 6 ± 2 | 5.5 | – |
| N^2-(3-Chloro-2-methylphenyl)-4′-methyl-[5,5′-bithiazole]-2,2′-diamine [compound 40] | – | 16 ± 2 µM | – | – | IC50 [2, 11]: 15.9 µM |
| OCCc1cn(Cc2ccc(Cl)c(Cl)c2)c2ccccc12 [compound 19, 2-(1-(3,4-Dichlorobenzyl)-1H-indol-3-yl)ethan-1-ol] | 12 ± 3 | – | 29 ± 1 | 28.9 | – |
| OCc1cn(Cc2ccc(Cl)c(Cl)c2)c2cc(F)ccc12 [compound 27, (1-(3,4-Dichlorobenzyl)-6-fluoro-1H-indol-3-yl)methanol] | 10 ± 5 | 9 ± 2 µM | < 10 | 8.9 | – |
| N^2-(3-Methoxyphenyl)-4′-methyl-[5,5′-bithiazole]-2,2′-diamine [compound 39] | – | 18 µM | – | – | IC50 [2, 11]: 17.9 µM |
| ON=C(Cc1ccc(Cl)cc1)c1ccc(O)nc1 [8Z, 2-(4-Chlorophenyl)-1-(6-hydroxypyridin-3-yl)ethan-1-one oxime] | – | > 28 µM | – | – | IC50 [1, 10]: > 28 µM |
| Oc1ccc(-c2csc(Nc3cccc(C(F)(F)F)c3)n2)c(O)c1 [compound 37] | 19 ± 2 | – | 23 ± 1 | – | – |
| CON=C(Cc1ccc(Cl)cc1)c1ccc(O)cc1O [compound 11, (E)-2-(4-Chlorophenyl)-1-(2,4-dihydroxyphenyl)ethan-1-one o-Methyl Oxime] | 19 ± 3 | – | 28 ± 9 | – | – |
| OCc1cn(Cc2ccc(Cl)cc2)c2ccccc12 [compound 20] | 22 ± 5 | – | 28 ± 14 | 27.2 | – |
| O=[N+]([O-])c1ccc2c(c1)c(CO)cn2Cc1ccc(Cl)c(Cl)c1 [compound 29, (1-(3,4-Dichlorobenzyl)-5-nitro-1H-indol-3-yl)methanol] | 4 ± 1 | 7 µM | < 10 | 7.2 | – |
